Patent US12090221B2, “Composition for preventing gray hair, promoting black hair and preventing, improving or treating vitiligo or hypochromatism comprising fructose 1,6-bisphosphate or salt, solvate, stereoisomer or hydrate thereof as active ingredient” (AMOREPACIFIC CORPORATION, priority 2021, dated 2024)

What was measured:
human hair follicles = assay: Effect of preventing gray hair and promoting black hair in cultured human hair follicles damaged with hydrogen peroxide (Fontana-Masson staining of melanin); format: cell-based; conditions: 100 ppm together with 1000 μM hydrogen peroxide, cultured for 3 days, FIG. 3
Procedure: Occipital scalp tissue was obtained from a person who received hair follicle transplantation surgery due to hair loss. Hair follicle samples were isolated from the obtained occipital scalp tissue using a microscope. A total of 15 hair follicle samples were prepared for 3 groups, with 5 samples per each group. The hair follicle samples were cultured on a 24-well plate (Nunc, Wiesbaden, Germany) containing 500 μL of a culture medium, with 5 samples per well. As the culture medium, William's E medium (GIBCO, NY, USA) containing 2 mM L-glutamine (PAA, Coelbe, Germany), 10 μg/mL insulin, 10 ng/mL hydrocortisone (Sigma, St Louis, Mo.), 0.1% Fungizone (GIBCO, NY, USA), 10 μg/mL streptomycin and 100 U/mL penicillin (GIBCO, NY, USA) was used. After simultaneously treating with hydrogen peroxide and a fructose 1,6-bisphosphate trisodium salt (FBP-Na3H) at 1000 μM and 100 ppm, respectively, the samples were cultured for 3 days. For comparison, control groups were treated with 1000 μM hydrogen peroxide (H2O2) only or with neither hydrogen peroxide nor the fructose 1,6-bisphosphate trisodium salt. After the treatment, the sample was fixed with formalin, washed with water, dehydrated with alcohol and xylene, and then embedded in paraffin according to a common tissue-processing procedure. […]

[1] = test system: Normal human epidermal melanocytes; assay: Melanin synthesis-promoting effect in normal human melanocytes (absorbance at 475 nm of NaOH lysate); format: cell-based; conditions: cultured for 6 days, relative to untreated group as 100%
Procedure: Normal human epidermal melanocytes (GIBCO™, ThermoFisher Scientific, USA) were treated with fructose 1,6-bisphosphate at 0 (untreated group), 0.1, 1, 10 or 100 ppm and then cultured for 6 days. After the culturing, the cells were lysed with 1 N NaOH and absorbance was measured at 475 nm. Relative melanin production was represented with respective to the absorbance of the untreated group not treated with fructose 1,6-bisphosphate as 100%. A higher absorbance means a higher melanin content.

Structure (SMILES) | Melanin production in human hair follicles (Fontana-Masson staining) (human hair follicles) | Prevention of decreased melanin production in hair bulbs due to hydrogen peroxide damage (Fontana-Masson staining) (human hair follicles; compared with H2O2 only) | Relative melanin production (effect of promoting melanin production in melanocytes) ([1]; 0.1, 1, 10 or 100 ppm, FIG. 1 and FIG. 2) | Relative melanin production (effect of promoting melanin production in melanocytes) ([1]; 100 ppm treatment group)
O=C(COP(=O)([O-])[O-])[C@@H](O)[C@H](O)[C@H](O)COP(=O)([O-])O.[Na+].[Na+].[Na+] [fructose 1,6-bisphosphate trisodium salt] | promoting melanin production in human hair follicles | preventing decreased melanin production in hair bulbs due to damage caused by hydrogen peroxide |  | 
O=C(COP(=O)(O)O)[C@@H](O)[C@H](O)[C@H](O)COP(=O)(O)O [fructose 1,6-bisphosphate] |  |  | exhibits the effect of promoting melanin production in melanocytes | significantly high
